Test results reported in PMC9725750, “The clinical pharmacology of tafenoquine in the radical cure of Plasmodium vivax malaria: An individual patient data meta-analysis” (eLife, 2022).
Like-named read-outs stand apart in the source and are kept apart here.

Assay: Population pharmacokinetic modelling of plasma tafenoquine (patients and healthy volunteers)
Format: in vivo, human
Conditions: for Patient – MTT covariate / Patient – Vc/F covariate / Patient – Vp/F covariate: Malaria patients: 1 + Θ; for Vomit – F covariate: Vomiting: 1 + Θ; for Age – CL/F covariate: linear, 1 + Θ × (Age-35); for Vd/F: human, plasma, oral, read-out: Vc/F, apparent central volume of distribution; for IIV CL/F, inter-individual variability / IIV F, inter-individual variability / IIV MTT, inter-individual variability / IIV Q/F, inter-individual variability / IIV Vp/F, inter-individual variability / RUV, additive residual error: variance estimate
Text: Tafenoquine pharmacokinetics have been described in detail previously ([Thakkar et al., 2018]). Tafenoquine is a slowly eliminated 8-aminoquinoline antimalarial drug with a terminal elimination half-life of around 15 days. The metabolites have not been well characterised. Tafenoquine pharmacokinetics have been characterised previously by a two-compartment pharmacokinetic (PK) model (i.e. bi-exponential decay model) with allometric scaling of clearance and volume parameters ([Thakkar et al., 2018]). We inspected visually all individual drug level profiles and excluded 10 concentrations from 8 patients which were substantial outliers. A total of 15 malaria patients vomited within one hour of drug administration. […] One patient was not re-dosed and had very low tafenoquine levels during follow-up. We removed this patient from all analyses as it is difficult to estimate the amount of drug ingested. For the remaining 14 patients who vomited and were re-dosed, time since dose was calculated as the time since the second dose (in some patients this was the next day). All available tafenoquine concentration measurements were transformed into their natural logarithms and characterised using nonlinear mixed-effects modelling in the software NONMEM v7.4 (Icon Development Solution, Ellicott City, MD). […] One-, two-, and three-compartment dispositional models were evaluated, as well as different absorption models (i.e. first-order absorption and a fixed number of transit absorption compartments). Inter-individual variability was implemented as an exponential function of all structural PK parameters. The first-order conditional estimation method with interactions (FOCE-I) and subroutine ADVAN5 TRANS1 were used throughout the study. Body weight was implemented as a fixed allometric function on clearance parameters (exponent of 0.75) and as a linear function on volume parameters (exponent of 1.0). Additional, biologically relevant, covariates (i.e. age, sex, vomiting, tafenoquine formulation and patient vs healthy volunteers) were evaluated on all PK parameters using a linearized stepwise addition (p<0.01) and backward elimination (p<0.001) covariate approach.
Potential model mis-specification and systematic errors were evaluated by basic goodness-of-fit diagnostics. Model robustness and parameter confidence intervals were evaluated by a sampling-important-resampling (SIR) procedure ([Dosne et al., 2017]). Predictive performance of the final model was illustrated by prediction-corrected visual predictive checks (n=2,000) ([Bergstrand et al., 2011]). The 5th, 50th, and 95th percentiles of the observed concentrations were overlaid with the 95% confidence intervals of each simulated percentile to detect model bias. Under the population mixed-effects model we estimated for each healthy volunteer and each patient in the three efficacy studies: (i) the area under the plasma concentration time curve ( AUC[0,∞ ); (ii) the maximum peak concentration ( Cmax ); and (iii) the terminal elimination half-life (t1/2). […] Details of the final model are given in Appendix 6.
For the terminal elimination half-life, multiple patients had estimated values greater than 30 days. On examination, the NONMEM model estimates of the terminal elimination half-life were not robust with respect to the model structure. In order to derive robust half-life estimates, we fit a robust (using a student- t likelihood, [Lange et al., 1989]) Bayesian hierarchical linear model to the observed log-concentrations post day 4 (terminal phase; random intercept and slope). […] The half-life is then defined as -log(2)/βi where βi is the individual slope estimate for patient i . Values below the lower limit of quantification were treated as left-censored observations with censoring value equal to log(2 ng/ml). The model included an interaction term between time and the log patient weight (clearance was associated with weight); and a dose (mg/kg) dependent intercept term. […]

[1] = population estimate (%RSE), typical healthy individual 70 kg, 35 years

COc1cc(C)c2c(Oc3cccc(C(F)(F)F)c3)c(OC)cc(NC(C)CCCN)c2n1 (stereo not drawn) [tafenoquine]
CL/F, oral elimination clearance (SIR median (95% CI)): 3.14 (2.71–3.70) L/h | MTT, mean absorption transit time over 6 transit compartments (SIR median (95% CI)): 3.05 (2.30–3.87) h | Vp/F, apparent peripheral volume of distribution (SIR median (95% CI)): 318 (248–424) L | Patient – MTT covariate (SIR median (95% CI)): 0.929 (0.605–1.51) | Patient – Vc/F covariate (SIR median (95% CI)): –0.282 (-0.0784–-0.395) | Patient – Vp/F covariate (SIR median (95% CI)): 1.30 (0.670–1.88) | Vomit – F covariate (SIR median (95% CI)): 0.434 (0.315–0.608) | Age – CL/F covariate (SIR median (95% CI)): –0.00435 (-0.00206–-0.00589) | decrease in CL/F per 10 years of age increase from the median age of 35 years (covariate Age – CL/F, final model): 4.34% | lower central volume of distribution in patients compared to healthy volunteers (covariate Patient – Vc/F): 27.6% | higher total dose when 1st dose was vomited and re-administered (covariate Vomit – F, relative oral bioavailability): 44.7% | Vd/F (SIR median (95% CI)): 1360 L | Vd/F [1]: 1330 L | Patient – MTT covariate (population estimate (%RSE)): 0.937 (24.7) | Patient – Vc/F covariate (population estimate (%RSE)): –0.276 (29.4) | Patient – Vp/F covariate (population estimate (%RSE)): 1.40 (21.6) | Vomit – F covariate (population estimate (%RSE)): 0.447 (16.3) | Age – CL/F covariate (population estimate (%RSE)): –0.00434 (23.4) | CL/F, oral elimination clearance [1]: 3.14 (8.43) L/h | MTT, mean absorption transit time over 6 transit compartments [1]: 3.14 (12.8) h | Vp/F, apparent peripheral volume of distribution [1]: 311 (14.4) L | IIV CL/F, inter-individual variability (SIR median (95% CI)): 0.0349 (0.0193–0.0451) | IIV F, inter-individual variability (SIR median (95% CI)): 0.0870 (0.0559–0.120) | IIV MTT, inter-individual variability (SIR median (95% CI)): 0.0887 (0.0585–0.124) | IIV Q/F, inter-individual variability (SIR median (95% CI)): 0.156 (0.1000–0.226) | IIV Vp/F, inter-individual variability (SIR median (95% CI)): 0.0265 (0.0153–0.0400) | RUV, additive residual error (SIR median (95% CI)): 0.0240 (0.0170–0.0333) | IIV CL/F, inter-individual variability (population estimate (%RSE)): 0.0338 (18.8) | IIV F, inter-individual variability (population estimate (%RSE)): 0.0850 (19.2) | IIV MTT, inter-individual variability (population estimate (%RSE)): 0.0831 (21.0) | IIV Q/F, inter-individual variability (population estimate (%RSE)): 0.151 (20.5) | IIV Vp/F, inter-individual variability (population estimate (%RSE)): 0.0256 (25.3) | RUV, additive residual error (population estimate (%RSE)): 0.0225 (18.8)
